Data set [1] can be described thus: Kidney concentrations after repeated oral administration for 3 days. In kind it is in vivo, rat. To be noted: 3 mg/kg once a day for 3 days, male Sprague-Dawley rats, 48 hours after final administration. The procedure: (2) Kidney Concentrations of Inventive Compounds After Repeated Oral Administration for 3 Days
SD/IGS rats at 7 weeks of age (male, non-fasting, Charles River Laboratories Japan Inc.) were orally administered once a day for 3 consecutive days with compound 1-2, 5-2, 6-2, 13-2 or 15-2 according to the present invention (3 mg/kg) prepared in a 0.5% aqueous CMC solution. At 48 hours after the final drug administration, the rats were exsanguinated via the postcaval vein under isoflurane anesthesia, and their kidneys were excised after they were confirmed to be euthanized. After the tissue surface was washed with physiological saline, each tissue was measured for its weight and homogenized in 4 volumes of purified water under ice cooling. The drug concentration in each homogenate was determined in the same manner as shown in Test Example 3(1) by LC-MS/MS using compound 11 as an internal standard substance.

The target of another data set is T1, human SGLT1 (Homo sapiens, UniProt P13866).
T1 construct: expressed in transfected cells; host or cells: CHO-K1
T1 sequence (P13866 1-664): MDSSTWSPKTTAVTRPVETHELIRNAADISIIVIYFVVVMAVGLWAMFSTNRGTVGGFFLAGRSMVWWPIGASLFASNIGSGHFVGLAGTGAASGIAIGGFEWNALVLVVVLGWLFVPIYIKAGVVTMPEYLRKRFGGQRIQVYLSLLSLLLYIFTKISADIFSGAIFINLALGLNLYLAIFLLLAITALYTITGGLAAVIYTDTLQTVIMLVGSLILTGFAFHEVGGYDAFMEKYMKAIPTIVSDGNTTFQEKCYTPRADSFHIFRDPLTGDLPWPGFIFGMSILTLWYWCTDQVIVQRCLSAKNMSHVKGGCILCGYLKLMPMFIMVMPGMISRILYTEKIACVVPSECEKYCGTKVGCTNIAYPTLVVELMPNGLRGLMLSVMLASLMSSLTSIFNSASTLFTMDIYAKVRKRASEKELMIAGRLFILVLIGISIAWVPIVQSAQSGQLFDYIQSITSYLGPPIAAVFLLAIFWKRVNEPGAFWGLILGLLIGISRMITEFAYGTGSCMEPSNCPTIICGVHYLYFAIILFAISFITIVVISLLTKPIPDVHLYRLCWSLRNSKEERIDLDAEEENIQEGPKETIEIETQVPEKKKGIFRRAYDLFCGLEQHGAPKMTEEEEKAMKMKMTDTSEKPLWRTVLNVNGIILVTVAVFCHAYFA
Kind of data set: Inhibition test for sodium-dependent sugar uptake in CHO-K1 cells stably expressing human SGLT1. In kind it is cell-based. The settings on record: [14C]methyl α-D-glucopyranoside uptake, 37° C., 30 minutes, read-out: IC50 for hSGLT1. The procedure: (1) Creation of CHO-K1 Cells Stably Expressing Human SGLT1
A plasmid vector expressing human SGLT1 protein was transfected into CHO-K1 cells using lipofectamine 2000 (Invitrogen). The cells were cultured in the presence of 500 μg/mL geneticin to select resistant strains, followed by screening in the system shown below using sugar uptake capacity as an indicator to obtain SGLT1-expressing cells.
(§1) (3) Inhibition Test for Sodium-Dependent Sugar Uptake in Stably Expressing Cells
(§2) The stably expressing cells prepared above were used in the following test.
(§3) Pretreatment buffer (140 mM choline chloride, 2 mM KCl, 1 mM CaCl2, 1 mM MgCl2, 10 mM HEPES/5 mM Tris, pH 7.4) was added in a volume of 200 μL to the cells stably expressing SGLT1 or 2 mL for Method A and 200 μL for Method B to the cells stably expressing SGLT2, followed by incubation for 20 minutes. The pretreatment buffer was removed and replaced by uptake buffer containing a test compound (1 mM methyl α-D-glucopyranoside (containing [^14C]methyl α-D-glucopyranoside), 140 mM NaCl, 2 mM KCl, 1 mM CaCl2, 1 mM MgCl2, 10 mM HEPES/5 mM Tris, pH 7.4) in a volume of 75 μL for SGLT1 and SGLT2 in Method B or 200 μL for SGLT2 in Method A. Uptake reaction was performed at 37° C. for 30 minutes (SGLT1) or 60 minutes (SGLT2). After the reaction, the cells were washed twice with washing buffer (10 mM methyl α-D-glucopyranoside, 140 mM choline chloride, 2 mM KCl, 1 mM CaCl2, 1 mM MgCl2, 10 mM HEPES/5 mM Tris, pH 7.4) in a volume of 200 μL for SGLT1 and SGLT2 in Method B or 2 mL for SGLT2 in Method A, and then dissolved in a 0.25 M NaOH solution (75 μL for SGLT1 and SGLT2 in Method B or 400 μL for SGLT2 in Method A). A liquid scintillator (Perkin Elmer) was added and mixed well with each sample, followed by measurement of radioactivity using a β-ray analyzer. For the control group, uptake buffer containing no test compound was prepared. Moreover, another uptake buffer containing choline chloride instead of NaCl was also prepared for basal uptake.
(§4) For determination of IC50 values, test compounds prepared at 6 appropriate concentrations were used and their concentrations required for 50% inhibition of the amount of sugar uptake (IC50 values) were calculated relative to the amount of sugar uptake in the control group (100%).

The next data set deals with T2, human SGLT2 (Homo sapiens, UniProt P31639).
T2 construct: expressed in transfected cells; host or cells: CHO-K1
T2 sequence (P31639 1-672): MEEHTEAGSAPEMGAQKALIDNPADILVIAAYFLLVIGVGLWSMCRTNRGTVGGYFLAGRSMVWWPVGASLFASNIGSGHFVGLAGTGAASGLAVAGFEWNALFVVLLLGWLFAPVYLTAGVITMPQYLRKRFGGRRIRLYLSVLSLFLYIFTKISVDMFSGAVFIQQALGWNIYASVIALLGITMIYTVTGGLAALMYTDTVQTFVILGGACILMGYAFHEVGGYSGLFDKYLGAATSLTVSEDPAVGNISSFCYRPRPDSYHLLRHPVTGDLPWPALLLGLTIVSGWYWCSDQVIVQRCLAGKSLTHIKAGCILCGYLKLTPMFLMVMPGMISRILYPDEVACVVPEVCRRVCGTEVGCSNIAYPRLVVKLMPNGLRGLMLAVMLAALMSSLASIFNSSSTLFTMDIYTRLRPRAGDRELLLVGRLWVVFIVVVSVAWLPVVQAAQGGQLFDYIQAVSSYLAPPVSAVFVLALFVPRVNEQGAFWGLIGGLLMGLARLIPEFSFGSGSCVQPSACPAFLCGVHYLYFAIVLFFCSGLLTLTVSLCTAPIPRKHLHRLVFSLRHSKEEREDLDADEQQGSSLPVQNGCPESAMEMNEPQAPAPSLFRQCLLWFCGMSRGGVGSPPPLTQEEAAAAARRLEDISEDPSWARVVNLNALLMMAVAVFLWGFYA
Kind of data set: Inhibition test for sodium-dependent sugar uptake in CHO-K1 cells stably expressing human SGLT2, Method B. It is filed as cell-based. To be noted: uptake 37° C., 60 minutes, read-out: IC50 for hSGLT2 Method B. How it is done: (2) Creation of CHO-K1 Cells Stably Expressing Human SGLT2
Method B: A plasmid vector expressing human SGLT2 protein was transfected into CHO-K1 cells using lipofectamine LTX (Invitrogen). The cells were cultured in the presence of 1000 μg/mL geneticin to select resistant strains, followed by screening in the system shown below using sugar uptake capacity as an indicator to obtain SGLT2-expressing cells.
as §1, §2, §3, §4

Experimental findings from US8466113B2, “4-isopropylphenyl glucitol compounds as SGLT1 inhibitors” (Taisho Pharmaceutical Co., Ltd., priority 2009, dated 2013) are described below.

In the case of `COc1cc(C(C)C)c(Cc2ccc(/C=C/C(C)(C)C(=O)NC(C)(C)C(=O)NCCN(C)C)cc2)cc1[C@@H]1O[C@H](CO)[C@@H](O)[C@H](O)[C@H]1O` [Example 15-2], in data set [1], the “Concentration of compounds in kidney after 3 days continuous oral administration, After 2 days” value (“Concentration of compounds in kidney” below) is listed as “BLQ (BLQ means below lower limit of quantification(5 ng/g))”. Further, the IC50 turned out to be 29 nM at human SGLT1 and 20 nM on human SGLT2.
Consider `Cc1cc(/C=C/C(C)(C)C(=O)NC(C)(C)C(=O)N2CCC(N(C)C)CC2)ccc1Cc1cc([C@@H]2O[C@H](CO)[C@@H](O)[C@H](O)[C@H]2O)c(O)cc1C(C)C` [Example 5-2], for which, in data set [1], the “Concentration of compounds in kidney” value is given as “BLQ (BLQ means below lower limit of quantification(5 ng/g))”. Also, the figures for the IC50 at human SGLT1 and at human SGLT2 were 42 nM and 30 nM, respectively.
With `COc1cc(C(C)C)c(Cc2ccc(/C=C/C(C)(C)C(=O)NC(C)(C)C(=O)NCC(C)(C)N)cc2C)cc1[C@@H]1O[C@H](CO)[C@@H](O)[C@H](O)[C@H]1O` [Example 13-2], the “Concentration of compounds in kidney” value in data set [1] is given as “BLQ (BLQ means below lower limit of quantification(5 ng/g))”. Moreover, the IC50 amounted to 54 nM on human SGLT1 and 322 nM on human SGLT2.
Consider `Cc1cc(/C=C/C(C)(C)C(=O)NC(C)(C)C(=O)NCC(C)(C)N)ccc1Cc1cc([C@@H]2O[C@H](CO)[C@@H](O)[C@H](O)[C@H]2O)c(O)cc1C(C)C` [Example 6-2], for which, in data set [1], the “Concentration of compounds in kidney” value was “BLQ (BLQ means below lower limit of quantification(5 ng/g))”. Further, the values for the IC50 at human SGLT1 and at human SGLT2 were 27 nM and 64 nM, respectively.
`Cc1cc(/C=C/C(C)(C)C(=O)NC(C)(C)C(=O)NCCN(C)C)ccc1Cc1cc([C@@H]2O[C@H](CO)[C@@H](O)[C@H](O)[C@H]2O)c(O)cc1C(C)C` [Example 1-2]: the “Concentration of compounds in kidney” value in data set [1] is given as “BLQ^# (BLQ means below lower limit of quantification(5 ng/g))”. The half-inhibitory concentration (IC50) on human SGLT1 amounted to 35 nM; at human SGLT2 it was 74 nM.

In general, IC50 refers to the concentration at which inhibition is half-maximal.
